For this data set, the system named is patients with Metabolic Syndrome. As to the kind of experiment: Phase I/II buccal tablet study: triglyceride and HDL levels, incl. obese subset (Examples 7 and 8). It is filed as in vivo, human. Here is the method:
The study was a phase I/II randomized, double blind, dose-ranging, placebo-controlled, evaluation of the safety, tolerance, and activity on lipid laboratory markers after transmucosal (buccal) administration of two dose levels (20 mg or 80 mg) of fluasterone (16α-fluoro-5-androsten-17-one) compared to placebo in patients with Metabolic Syndrome. Study treatment consisted of eight weeks of buccal tablet administration of fluasterone or placebo control and subsequent follow-up for two weeks.
After patient consent had been obtained, patients were screened for eligibility into the study. Following informed consent, screening and laboratory testing, patients entered a six-week dietary run-in phase during which they followed a Step II AHA diet, and discontinued all lipid-lowering agents. At 4 weeks into the dietary run-in phase, qualifying lipid and endocrine laboratory measurements were performed. After the run-in phase, patients were randomized to receive either fluasterone or placebo control. Patients received fluasterone or placebo daily for 8 weeks. Patients were followed for an additional 2 weeks for total study duration of 16 weeks. The dose levels evaluated in this study were either 20 mg or 80 mg buccal tablets of fluasterone or placebo control that were formulated to dissolve between the lower gingival surfaces of the jaw and buccal mucosa of the cheek pouch.
Fluasterone or placebo equivalent was administered as either one or four buccal tablets. Each buccal tablet contained 16-α-fluoro-5-androsten-17-one, mannitol, crospovidone, magnesium stearate, polyethylene glycol 3350, silica gel and sodium lauryl sulfate. Patients were instructed to ingest water prior to placing the buccal tablets in their mouth. The tablets were held in the mouth without disturbance for approximately 10 minutes. Patients were instructed not to chew or swallow the tablets and not drink or eat for 30 minutes after study drug administration.
The study consisted of a 6-week dietary run-in phase during which they followed a Step II AHA diet and discontinued all lipid-lowering agents. After the run-in phase, patients who qualified based on lipid and endocrine laboratory measurements at the qualifying visit (week −2) were randomized to receive fluasterone or placebo control. Patients received fluasterone or placebo control daily for 8 weeks. Patients were followed for an additional 2 weeks to collect adverse events and an additional lipid profile for total study duration of 16 weeks.
Blood samples were collected for lipid determinations at the qualifying visit (week −2), at study day 1, and at weeks 2, 4, 6, 8, and 10.
There were 8 patients treated with 80 mg fluasterone, 9 with 20 mg fluasterone, 3 patients with 80 mg placebo, and 4 patients with 20 mg placebo.
The triglyceride level in the 80 mg fluasterone group declined from baseline by 34% at week […] and by 35% at week […]. In the combined placebo group at the corresponding time points the triglyceride levels increased by 6% and 7% respectively.

The mark [1] stands for this setting: 20 mg buccal daily, Week 2, 4, 6, & 8.
[2] abbreviates: 80 mg buccal daily, Week 2, 4, 6, & 8.
The mark [3] stands for this setting: obese subset, 80 mg buccal daily, Week 2, 4, 6, and 8.
The mark [4] stands for this setting: obese subset, 80 mg buccal daily, Week 8.
The mark [5] stands for this setting: obese subset, 80 mg buccal, Baseline (−2, 0).

In the case of `C[C@]12CCCCC1=CC[C@@H]1[C@@H]2CC[C@]2(C)C(=O)[C@H](F)C[C@@H]12` [fluasterone, 16α-fluoro-5-androsten-17-one], the HDL by setting is: under setting [1], 32.6 ± 6.4 (36) mg/dL; (20 mg buccal daily, Week 8) 33.3 ± 6.5 (9) mg/dL; (20 mg buccal, Baseline (−2, 0)) 31.6 ± 6.2 (18) mg/dL; under setting [2], 41.1 ± 8.1 (32) mg/dL; (80 mg buccal daily, Week 8) 41.6 ± 9.4 (8) mg/dL; (80 mg buccal, Baseline (−2, 0)) 40.8 ± 8.9 (16) mg/dL. Also, the HDL runs as follows: under setting [3], 40.3 ± 6.3 (20) mg/dL; under setting [4], 40.3 ± 4.6 (5) mg/dL; under setting [5], 39.2 ± 7.3 (10) mg/dL. The Triglycerides reads like this: under setting [1], 523 ± 311 (36) mg/dL; (20 mg buccal daily, Week 8) 538 ± 285 (9) mg/dL; (20 mg buccal, Baseline (−2, 0)) 507 ± 192 (18) mg/dL; under setting [2], 342 ± 111 (32) mg/dL; (80 mg buccal daily, Week 8) 292 ± 92.4 (8) mg/dL; (80 mg buccal, Baseline (−2, 0)) 455 ± 157 (16) mg/dL. The Triglycerides reads like this: under setting [3], 313 ± 93.7 (20) mg/dL; under setting [4], 307 ± 106 (5) mg/dL; under setting [5], 472 ± 169 (10) mg/dL. In addition, where the note is “80 mg buccal dose, all patients”, the “Effect on HDL level” value is “no apparent decline in HDL level”. In addition, the “Reduction of mean triglyceride level compared to baseline” value is, setting by setting: (80 mg buccal, mean 8-week level) 36%; (80 mg buccal, mean of week 2, 4, 6, & 8) “at least 25%”. In addition, the “Effect on HDL levels” value (obese subset, 80 mg buccal) was “no decline in HDL levels from baseline”. Also, the “Decline of triglyceride level from baseline” value turned out to be 34% (obese subset, 80 mg buccal, week 2, 4, 6, and 8, p=0.0368 vs combined placebo); 35% (obese subset, 80 mg buccal, week 8).

The values are drawn from US20040019026A1, “Compounds useful for treating hypertriglyceridemia” (priority 2000, published 2004).
